Measured values reported in ChEMBL document CHEMBL2346657, “Synthesis of novel 2-amino-4-(5'-substituted 2'-phenyl-1H-indol-3'-yl)-6-aryl-4H-pyran-3-carbonitrile derivatives as antimicrobial and antioxidant agents” (2013).
Activity calls are given as the source filed them. Unless noted, the calls are words filed in the database; no cut-off is given here.

Columns and labels:
Assay type in all cases: functional
[1] = tested on: Aspergillus terreus; assay: Antimicrobial activity against Aspergillus terreus MTCC 1782 at 500 ug/ml after 72 hrs by cup plate method; details: MTCC 1782, 72 h, read-out: IZ
[2] = tested on: Radical scavenging activity; assay: Antioxidant activity assessed as DPPH radical scavenging activity at 75 ug/ml
[3] = tested on: Aspergillus flavus; assay: Antimicrobial activity against Aspergillus flavus MTCC 1973 at 1000 ug/ml after 72 hrs by cup plate method; details: MTCC 1973, 72 h, read-out: IZ
[4] = tested on: Aspergillus niger; assay: Antimicrobial activity against Aspergillus niger MTCC 281 at 500 ug/ml after 72 hrs by cup plate method; details: MTCC 281, 72 h, read-out: IZ
[5] = tested on: Escherichia coli; assay: Antimicrobial activity against Escherichia coli MTCC 723 at 500 ug/ml after 24 hrs by cup plate method; details: MTCC 723, 24 h, read-out: IZ
[6] = tested on: Klebsiella pneumoniae; assay: Antimicrobial activity against Klebsiella pneumoniae NCTC 13368 at 750 ug/ml after 24 hrs by cup plate method; details: NCTC 13368, 24 h, read-out: IZ
[7] = tested on: Aspergillus niger; assay: Antimicrobial activity against Aspergillus niger MTCC 281 at 750 ug/ml after 72 hrs by cup plate method; details: MTCC 281, 72 h, read-out: IZ
[8] = tested on: Escherichia coli; assay: Antimicrobial activity against Escherichia coli MTCC 723 at 750 ug/ml after 24 hrs by cup plate method; details: MTCC 723, 24 h, read-out: IZ
[9] = tested on: Pseudomonas aeruginosa; assay: Antimicrobial activity against Pseudomonas aeruginosa MTCC 1688 at 750 ug/ml after 24 hrs by cup plate method; details: MTCC 1688, 24 h, read-out: IZ
[10] = tested on: Pseudomonas aeruginosa; assay: Antimicrobial activity against Pseudomonas aeruginosa MTCC 1688 at 1000 ug/ml after 24 hrs by cup plate method; details: MTCC 1688, 24 h, read-out: IZ
[11] = tested on: Staphylococcus aureus; assay: Antimicrobial activity against Staphylococcus aureus ATCC 29513 at 500 ug/ml after 24 hrs by cup plate method; details: ATCC 29513, 24 h, read-out: IZ
[12] = tested on: Staphylococcus aureus; assay: Antimicrobial activity against Staphylococcus aureus ATCC 29513 at 1000 ug/ml after 24 hrs by cup plate method; details: ATCC 29513, 24 h, read-out: IZ
[13] = tested on: Aspergillus terreus; assay: Antimicrobial activity against Aspergillus terreus MTCC 1782 at 1000 ug/ml after 72 hrs by cup plate method; details: MTCC 1782, 72 h, read-out: IZ
[14] = tested on: Aspergillus flavus; assay: Antimicrobial activity against Aspergillus flavus MTCC 1973 at 750 ug/ml after 72 hrs by cup plate method; details: MTCC 1973, 72 h, read-out: IZ
[15] = tested on: Klebsiella pneumoniae; assay: Antimicrobial activity against Klebsiella pneumoniae NCTC 13368 at 1000 ug/ml after 24 hrs by cup plate method; details: NCTC 13368, 24 h, read-out: IZ
[16] = tested on: Staphylococcus aureus; assay: Antimicrobial activity against Staphylococcus aureus ATCC 29513 at 750 ug/ml after 24 hrs by cup plate method; details: ATCC 29513, 24 h, read-out: IZ
[17] = tested on: Aspergillus terreus; assay: Antimicrobial activity against Aspergillus terreus MTCC 1782 at 750 ug/ml after 72 hrs by cup plate method; details: MTCC 1782, 72 h, read-out: IZ
[18] = tested on: Aspergillus oryzae; assay: Antimicrobial activity against Aspergillus oryzae MTCC 3567 at 500 ug/ml after 72 hrs by cup plate method; details: MTCC 3567, 72 h, read-out: IZ
[19] = tested on: Pseudomonas aeruginosa; assay: Antimicrobial activity against Pseudomonas aeruginosa MTCC 1688 at 500 ug/ml after 24 hrs by cup plate method; details: MTCC 1688, 24 h, read-out: IZ
[20] = tested on: Escherichia coli; assay: Antimicrobial activity against Escherichia coli MTCC 723 at 1000 ug/ml after 24 hrs by cup plate method; details: MTCC 723, 24 h, read-out: IZ
[21] = tested on: Aspergillus oryzae; assay: Antimicrobial activity against Aspergillus oryzae MTCC 3567 at 750 ug/ml after 72 hrs by cup plate method; details: MTCC 3567, 72 h, read-out: IZ
[22] = tested on: Aspergillus niger; assay: Antimicrobial activity against Aspergillus niger MTCC 281 at 1000 ug/ml after 72 hrs by cup plate method; details: MTCC 281, 72 h, read-out: IZ
[23] = tested on: Aspergillus oryzae; assay: Antimicrobial activity against Aspergillus oryzae MTCC 3567 at 1000 ug/ml after 72 hrs by cup plate method; details: MTCC 3567, 72 h, read-out: IZ
[24] = Antioxidant activity assessed as metal chelating activity by measuring inhibition of ferrozine-Fe2+ complex formation at 25 to 100 ug/ml
[25] = tested on: Klebsiella pneumoniae; assay: Antimicrobial activity against Klebsiella pneumoniae NCTC 13368 at 500 ug/ml after 24 hrs by cup plate method; details: NCTC 13368, 24 h, read-out: IZ
[26] = tested on: Radical scavenging activity; assay: Antioxidant activity assessed as DPPH radical scavenging activity at 50 ug/ml
[27] = tested on: Aspergillus flavus; assay: Antimicrobial activity against Aspergillus flavus MTCC 1973 at 500 ug/ml after 72 hrs by cup plate method; details: MTCC 1973, 72 h, read-out: IZ
[28] = Antioxidant activity assessed as ferric ion reducing activity at 75 ug/ml by FRAP assay
[29] = Antioxidant activity assessed as metal chelating activity by measuring inhibition of ferrozine-Fe2+ complex formation at 100 ug/ml; design: scale not given: the % may be the effect or the level left

Compound | zone of inhibition at 500 µg/mL [1] [mm] | zone of inhibition at 1000 µg/mL [3] [mm] | zone of inhibition at 500 µg/mL [4] [mm] | zone of inhibition at 500 µg/mL [5] [mm] | zone of inhibition at 750 µg/mL [6] [mm] | zone of inhibition at 750 µg/mL [7] [mm] | zone of inhibition at 750 µg/mL [8] [mm] | zone of inhibition at 750 µg/mL [9] [mm] | zone of inhibition at 1000 µg/mL [10] [mm] | zone of inhibition at 500 µg/mL [11] [mm] | zone of inhibition at 1000 µg/mL [12] [mm] | zone of inhibition at 1000 µg/mL [13] [mm] | zone of inhibition at 750 µg/mL [14] [mm] | zone of inhibition at 1000 µg/mL [15] [mm] | zone of inhibition at 750 µg/mL [16] [mm] | zone of inhibition at 750 µg/mL [17] [mm] | zone of inhibition at 500 µg/mL [18] [mm] | zone of inhibition at 500 µg/mL [19] [mm] | zone of inhibition at 1000 µg/mL [20] [mm] | zone of inhibition at 750 µg/mL [21] [mm] | also measured
O=c1[nH]cnc2c1C(c1c(-c3ccccc3)[nH]c3ccc(Cl)cc13)C=C(c1ccc(Cl)cc1)O2 (centres undefined) | 5 | 4 | 6 | 9 | 12 | 5 | 9 | 8 | 8 | 9 | 12 | 5 | 4 | 12 | 9 | 5 | 3 | 8 | 8 | 3 | Activity [2]: Active; zone of inhibition at 1000 µg/mL [22]: 5 mm; zone of inhibition at 1000 µg/mL [23]: 3 mm; Activity [24]: Active; zone of inhibition at 500 µg/mL [25]: 12 mm; Activity [26]: Active; zone of inhibition at 500 µg/mL [27]: 4 mm
N#Cc1c(N)c2c(N)c3c(nc2oc1=O)OC(c1ccc(Cl)cc1)=CC3c1c(-c2ccccc2)[nH]c2ccc(Cl)cc12 (centres undefined) | 12 | 8 | 8 | 11 | 13 | 8 | 12 | 8 | 3 | 12 | 10 | 13 | 9 | 13 | 12 | 13 | 9 | 9 | 14 | 3 | Activity [28]: Active; Activity [29]: 79.7%; zone of inhibition at 1000 µg/mL [22]: 10 mm; zone of inhibition at 1000 µg/mL [23]: 3 mm; Activity [24]: Active; zone of inhibition at 500 µg/mL [25]: 13 mm; zone of inhibition at 500 µg/mL [27]: 10 mm
